Data taken from publication PMC7024211, “Antifouling Napyradiomycins from Marine-Derived Actinomycetes Streptomyces aculeolatus” (Marine Drugs, 2020).

Columns and labels:
[1] = cited from earlier work
[2] = tested on: Scenedesmus quadricauda; settings: experimental data ref Tisler and Zagorc-Koncan, 2003; cited from earlier work
[3] = tested on: Oral rat/rabit; settings: ref Acros Organics safety data sheet; cited from earlier work
[4] = tested on: Orcorhynchus mykiss; settings: experimental data ref Tisler and Zagorc-Koncan, 2003; cited from earlier work
[5] = tested on: Daphnia magna; settings: experimental data ref Tisler and Zagorc-Koncan, 2003; cited from earlier work
[6] = tested on: Daphnia magna; settings: experimental data ref Tisler and Zagorc-Koncan, 2003; cited from earlier work; remark: listed apart in the source
[7] = tested on: P. inhibens; assay: Biofilm inhibition assay (crystal violet); format: cell-based, Phaeobacter inhibens; settings: CuSO4 5 μM reference
Procedure: (§1) In a 96-well plate, biofilm grown cultures of M. hydrocarbonoclasticus and C. marina were incubated with napyradiomycins (1–12) at a concentration of 31.25 µg/mL. After discarding the media, biofilm inhibition was determined from OD600 measurements of crystal violet stained cells resuspended from the plate bottom with acetic acid.
(§2) Five marine bacterial species were used as models to assess antimicrofouling activity. The biofilm-forming marine bacteria Marinobacter hydrocarbonoclasticus DSM 8798 (ATCC 49840), Cobetia marina DSM 4741, Phaeobacter inhibens DSM 17,395, and Pseusooceanicola batsensis DSM 15,984 were obtained from DSMZ (Leibniz Institute DSMZ—German collection of Microorganisms and Cell Cultures) and Micrococcus luteus. Cultures were routinely grown in liquid marine broth (Carl Roth GmbH, Karlsruhe, Germany) with agitation (180 rpm) or on agar-supplemented marine broth, at 28 °C (M. hydrocarbonoclasticus and C. marina) or 30 °C (P. inhibens and P. batsensis). M. luteus was maintained in Brain Heart Infusion broth (BHI, Becton Dickinson, GmbH, Heidelberg, Germany) with agitation (180 rpm) or on agar-supplemented BHI, at 37 °C.
(§3) The antibiofilm activity of napyradiomycins (1–12) against the five marine bacterial species was assessed in 96-well polystyrene flat bottom microplates (Nunclon Delta Surface, Thermo Scientific, Roskilde, Denmark) as previously reported. For initial screening, bacterial overnight cultures were diluted to an optical density (OD600nm) value of 0.2 and incubated statically at 28 °C (M. hydrocarbonoclasticus, C. marina), 30 °C (P. inhibens, P. batsensis) or 37 °C (M. luteus) in the 96-well microplate in the presence or absence of 31.25 µg/mL of napyradiomycins, solubilized in DMSO. After 24 h (M. hydrocarbonoclasticus, C. marina) or 48 h (P. batsensis, P. inhibens, M. luteus) incubation, the OD600nm was determined. The planktonic cells and media were discarded, and the wells were washed twice with deionized water. The biofilm was fixed for 1 h at 60 °C and stained with crystal violet 0.06% for 10 min. The dye was discarded, and the wells were again washed twice with deionized water. The stained biofilm was solubilized with 30% acetic acid and the OD600nm was determined. […] The percentage of biofilm inhibition was calculated as the amount of biofilm relative to that of the bacterial species without added compounds (with the same amount of DMSO added). CuSO4 (5 μM), a potent antifouling agent used in antifouling paints, was used as reference.
All assays were performed in triplicate, and results are representative of the average and standard error of the mean (SEM). […]

[8] = tested on: P. batsensis; assay: Biofilm inhibition assay (crystal violet); format: cell-based, Pseudooceanicola batsensis; settings: CuSO4 5 μM reference
Procedure: as §1, §2, §3
(§4) All assays were performed in triplicate, and results are representative of the average and standard error of the mean (SEM). Statistical analysis was performed in GraphPad Prism 8.0.2, using one-way ANOVA followed by a Dunnett’s multiple comparisons test against the control (species grown with the same amount of DMSO added).

[9] = tested on: P. batsensis; assay: Bacterial growth inhibition assay (OD600nm); format: cell-based, Pseudooceanicola batsensis; settings: CuSO4 5 μM reference
Procedure: (§5) As a first screening approach, liquid cultures of M. hydrocarbonoclasticus, and C. marina in a 96-well format were analyzed for bacterial growth inhibition by percent decrease in OD600 after incubation with napyradiomycins (1–12) at 31.25 µg/mL.
as §2
(§6) The antibacterial activity of the napyradiomycins (1–12) was assessed in 96-well polystyrene flat bottom microplates (Nunclon Delta Surface, Thermo Scientific, Roskilde, Denmark) following previously reported procedures. For initial screening, bacterial overnight cultures were diluted to an optical density (OD600nm) of 0.2 and incubated statically at 28 °C (M. hydrocarbonoclasticus, C. marina), 30 °C (P. inhibens, P. batsensis) or 37 °C (M. luteus) in a 96-well microplate in the presence or absence of 31.25 µg/mL of the napyradiomycins, solubilized in DMSO. After 24 h (M. hydrocarbonoclasticus, C. marina) or 48 h (P. batsensis, P. inhibens, M. luteus) incubation, the OD600nm was determined (Molecular Devices, Spectra Max 190). […] The percentage of growth inhibition was calculated as the amount of growth relative to that of the bacterial species without added compounds (with the same amount of DMSO added). CuSO4 (5 μM), a potent antifouling agent used in antifouling paints, was used as reference.
as §4, with “8.0.2 (San Diego, CA, USA),” for “8.0.2,”

[10] = tested on: P. inhibens; assay: Bacterial growth inhibition assay (OD600nm); format: cell-based, Phaeobacter inhibens; settings: CuSO4 5 μM reference
Procedure: as §5
Five marine bacterial species were used as models to assess antimicrofouling activity. The biofilm-forming marine bacteria Marinobacter hydrocarbonoclasticus DSM 8798 (ATCC 49840), Cobetia marina DSM 4741, Phaeobacter inhibens DSM 17,395, and Pseusooceanicola batsensis DSM 15,984 were obtained from DSMZ (Leibniz Institute DSMZ—German collection of Microorganisms and Cell Cultures) and Micrococcus luteus. […]
The antibacterial activity of the napyradiomycins (1–12) was assessed in 96-well polystyrene flat bottom microplates (Nunclon Delta Surface, Thermo Scientific, Roskilde, Denmark) following previously reported procedures. […] After 24 h (M. hydrocarbonoclasticus, C. marina) or 48 h (P. batsensis, P. inhibens, M. luteus) incubation, the OD600nm was determined (Molecular Devices, Spectra Max 190). […] The percentage of growth inhibition was calculated as the amount of growth relative to that of the bacterial species without added compounds (with the same amount of DMSO added). […]

[11] = tested on: M. hydrocarbonoclasticus; assay: Biofilm inhibition assay (crystal violet); format: cell-based, Marinobacter hydrocarbonoclasticus; settings: CuSO4 5 μM reference
Procedure: as §1, §2, §3, §4

[12] = tested on: M. hydrocarbonoclasticus; assay: Bacterial growth inhibition assay (OD600nm); format: cell-based, Marinobacter hydrocarbonoclasticus; settings: CuSO4 5 μM reference
Procedure: as §5, §2, §6
as §4, with “8.0.2 (San Diego, CA, USA),” for “8.0.2,”

[13] = tested on: C. marina; assay: Biofilm inhibition assay (crystal violet); format: cell-based, Cobetia marina; settings: CuSO4 5 μM reference
Procedure: as §1, §2, §3, §4

[14] = tested on: M. luteus; assay: Bacterial growth inhibition assay (OD600nm); format: cell-based, Micrococcus luteus; settings: CuSO4 5 μM reference
From the text: as §2
(§7) The antibacterial activity of the napyradiomycins (1–12) was assessed in 96-well polystyrene flat bottom microplates (Nunclon Delta Surface, Thermo Scientific, Roskilde, Denmark) following previously reported procedures. […] After 24 h (M. hydrocarbonoclasticus, C. marina) or 48 h (P. batsensis, P. inhibens, M. luteus) incubation, the OD600nm was determined (Molecular Devices, Spectra Max 190). […] The percentage of growth inhibition was calculated as the amount of growth relative to that of the bacterial species without added compounds (with the same amount of DMSO added). CuSO4 (5 μM), a potent antifouling agent used in antifouling paints, was used as reference.
as §4, with “8.0.2 (San Diego, CA, USA),” for “8.0.2,”

[15] = tested on: C. marina; assay: Bacterial growth inhibition assay (OD600nm); format: cell-based, Cobetia marina; settings: CuSO4 5 μM reference
From the text: as §2, §7
as §4, with “8.0.2 (San Diego, CA, USA),” for “8.0.2,”

[16] = tested on: M. luteus; assay: Biofilm inhibition assay (crystal violet); format: cell-based, Micrococcus luteus; settings: CuSO4 5 μM reference
Procedure: as §1, §2, §3, §4

Compound	ATE category [1]	Aquatic toxicity Alga Scenedesmus quadricauda 72 hour IC50 [2] [mg/L]	Acute toxicity Oral rat/rabit LD50 [3] [mg/kg]	Aquatic toxicity Fish Orcorhynchus mykiss 96 hour LC50 [4] [mg/L]	Aquatic toxicity Daphnia magna EC50 48 hour [5] [mg/L]	Chronic toxicity Daphnia magna 21 day NOEC [6] [mg/L]	% biofilm inhibition P. inhibens [7] [%]	% biofilm inhibition P. batsensis [8] [%]	% growth inhibition P. batsensis [9] [%]	% growth inhibition P. inhibens [10] [%]	biofilm inhibition M. hydrocarbonoclasticus [11]	% growth inhibition M. hydrocarbonoclasticus [12] [%]	biofilm inhibition C. marina [13]	growth inhibition M. luteus [14]	growth inhibition C. marina [15]	biofilm inhibition M. luteus [16]
[As] [Arsenic]	2 (category 2, 5 < ATE ≤ 50 mg/Kg)	34.7	12	15.3	2.5	1.85										
[Cu] [Copper]	3 (category 3, 50 < ATE ≤ 300 mg/Kg)	0.18	140	0.48	0.030	0.015										
O=S(=O)([O-])[O-].[Cu+2] [CuSO4, reference compound]							12.9 ± 6.4	41.4 ± 0.9	44.8 ± 6.3	66.2 ± 5.6	not inhibited	35.8 ± 0.8	not inhibited	not inhibited	not inhibited	not inhibited
